The term IC50 denotes the concentration needed to halve the response being measured.

The assay has as its system LNCaP. Briefly: Antiproliferative activity against human LNCaP cell line. The class given is functional, cell-based.
The mark [1] stands for this setting: Homo sapiens, LNCaP, read-out: IC50.

As to `COc1cc2c(cc1O)CC[C@@H]1[C@@H]2CC[C@]2(C)[C@@H](O)CC[C@@H]12` [2-METHOXYESTRADIOL], the IC50 under setting [1] amounted to 500 nM.

For `COc1cc2c(cc1O)CC[C@@H]1[C@@H]2CC[C@]2(C)[C@@H](OC(=O)CNC(=O)CCCCCN)CC[C@@H]12`, the IC50 under setting [1] was 600 nM.

Consider `COc1cc2c(cc1O)CC[C@@H]1[C@@H]2CC[C@]2(C)[C@@H](OC(=O)CNC(=O)OCC3c4ccccc4-c4ccccc43)CC[C@@H]12`, for which, under “lncap”, the IC50 entry was “Not Active”.

Regarding `COc1cc2c(cc1O)CC[C@@H]1[C@@H]2CC[C@]2(C)[C@@H](OC(=O)CN)CC[C@@H]12`, under setting [1], the IC50 worked out at 900 nM.

As to `COc1cc2c(cc1O)CC[C@@H]1[C@@H]2CC[C@]2(C)[C@@H](OC(=O)CNC(=O)CCCCCNC(=O)CCCC[C@@H]3SC[C@@H]4NC(=O)N[C@@H]43)CC[C@@H]12`, the IC50 under setting [1] amounted to 600 nM.

With `COc1cc2c(cc1O)CC[C@@H]1[C@@H]2CC[C@]2(C)[C@@H](OC(=O)CNC(=O)CCCCCNC(=O)OC(C)(C)C)CC[C@@H]12`, the IC50 under setting [1] was 600 nM.

These data come from ChEMBL document CHEMBL1138074, “SAR studies of 2-methoxyestradiol and development of its analogs as probes of anti-tumor mechanisms” (Bioorg Med Chem Lett, 2006).
